Experimental findings from patent publication US10851064B2, “ACSS2 inhibitors and methods of use thereof” (METABOMED LTD., priority 2017, dated 2020) are described below.

Each structure is given as a SMILES string. “And” between values parts separate entries of the source, which are not always exact repeats. Equal values may be shown once.

Assay [1] addresses T1, ACSS2 (Homo sapiens, UniProt Q9NR19). The experiment in a line: cell-based.
Description: (§1) ACSS2 Cellular Activity Assay (Cellular IC50)
(§2) The cellular activity of ACSS2 was based on tracing the incorporation of carbons from ^13C-Acetate into fatty-acids.
(§3) BT474/MDA-MB-468 cells growing in DMEM+25 mM D-glucose+1 mM sodium pyruvate+10% FBS+2 mM glutamine were plated in 12-well plates at 0.4×10^6 cells/well. The cells were then incubated at CO2 incubator for 24 hrs at hypoxic conditions (1% O2) before treated with compounds. At day 2, the medium was replaced to DMEM medium containing 15 mM Glucose, 1 mM Pyruvate, 0.65 mM Glutamine, 1% Dialyzed serum, 3.5 ug/ml Biotin, 0.2 mM ^13C-Acetate and various concentrations of the compounds. The cells were incubated for 5 hours at CO2 incubator in hypoxic conditions (1% O2). At the end of the 5 hours' incubation, the cells were washed twice with cold PBS, harvested in 1 ml PBS and transfer into V-shaped HPLC glass vials and centrifuge for 10 min at 600 g at 4 C. The supernatant was removed, and the cells' pellets were stored at −80° C. until taken for saponification.
(§4) The cells pellets were resuspended with 0.5 ml of the 90% Methanol, 10% H2O, 0.3M NaOH mixture and incubated at 80° C. for 60 min. Following the incubation, 50 μl formic acid and 0.4 ml hexane were added and the mixture was vortexed for 2 minutes. The vials were left few minutes for phases separation and then 200 μl of the top hexane phase extracted to a new glass vial. The hexane was dried under nitrogen and reconstituted in 100 μl of Methanol:Acetonitrile 5:3 mixture. The solution transferred to Eppendorf tubes, spun down at 17000 G for 20 min and transferred to LC-MS vials.
(§5) The analysis was performed with Thermo Q Exactive mass spectrometer with HESI probe and Dionex Ultimate 3000 UHPLC system. The separations were performed on Phenomenex Kintex 2.6u XB-C18 100A 150×2.10 mm column by injecting 5 ul of each sample. The chromatography started with a linear gradient from 85% to 100% of organic solvent (Methanol:Acetonitrile 1:1) versus 10 mM Ammonium Acetate buffer pH 4.7 for 3.5 minutes, followed by 4.5 minutes of isocratic 100% organic solvent and then 3 minutes of isocratic initial conditions, at a flow rate of 0.3 ul/min. The MS source conditions that were used: capillary temperature 325° C., sheath flow 25, aux flow 15, spray voltage 3.8 kV, aux temperature 300° C. The data collected from Negative ion mode at resolution of 70000 at Full-MS mode in 75-1000 m/z range.
(§6) The analysis of ^13C acetate incorporation into fatty acids (palmitate, myristate and stearate) performed on TraceFinder 3.2.512.0. The negative control areas and ^13C isotopic theoretical natural abundance were subtracted from the samples areas. Total ^13C incorporation for each fatty-acid (palmitate, myristate and stearate) was calculated and presented as percentage of the total amount.
For assay [2], the target named is T1, ACSS2. The assay is described as follows: cell-based. This is another data set of the same source.
Description: as §1, §2, §3, §4, §5, §6
The target of assay [3] is T1, ACSS2. The experiment in a line: cell-based. The source holds these as a separate data set.
Description: Testing the inhibitory effect of compounds on the cellular activity of ACSS2 was done by tracing the incorporation of ^13C from ^13C-acetate into fatty-acids in MDA-MB-468 cells under hypoxic conditions of 1% 02. The assay was done for 5 hours in DMEM with 5.5 mM glucose, 1 mM sodium Pyruvate, 0.65 mM Glutamine, 3.5 ug/ml Biotin, 1% dialyzed serum, 0.5 mM 13C-acetate and with different concentrations of the inhibitors. At the end of the incubation, the cells were washed with cold PBS, harvested into glass tubes and undergo saponification. The level of ^13C incorporation into Palmitate was done by LC-MS analysis and the level of inhibition was calculated with PRISM software.
The target in assay [4] is T1, ACSS2. The assay is described as follows: biochemical.

T1 sequence (Q9NR19 whole entry): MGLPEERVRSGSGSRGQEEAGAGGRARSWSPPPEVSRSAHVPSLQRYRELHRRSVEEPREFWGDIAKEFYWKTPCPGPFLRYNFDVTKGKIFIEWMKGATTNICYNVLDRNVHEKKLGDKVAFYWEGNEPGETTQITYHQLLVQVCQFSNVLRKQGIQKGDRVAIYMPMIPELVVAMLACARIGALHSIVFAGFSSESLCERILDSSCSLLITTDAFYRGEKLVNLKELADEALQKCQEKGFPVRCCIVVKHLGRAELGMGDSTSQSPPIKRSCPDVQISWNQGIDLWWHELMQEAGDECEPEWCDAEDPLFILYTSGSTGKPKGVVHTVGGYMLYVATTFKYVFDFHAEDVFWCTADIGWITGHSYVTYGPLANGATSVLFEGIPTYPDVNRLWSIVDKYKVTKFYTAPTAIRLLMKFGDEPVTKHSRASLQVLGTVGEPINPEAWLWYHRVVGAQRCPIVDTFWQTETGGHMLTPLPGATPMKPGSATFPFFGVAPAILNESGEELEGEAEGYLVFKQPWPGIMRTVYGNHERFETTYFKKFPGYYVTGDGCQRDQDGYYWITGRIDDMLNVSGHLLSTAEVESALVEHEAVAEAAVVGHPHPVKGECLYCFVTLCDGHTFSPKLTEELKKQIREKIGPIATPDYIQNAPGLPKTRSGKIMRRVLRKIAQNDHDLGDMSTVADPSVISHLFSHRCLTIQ

The IC50 is the concentration that gives 50% inhibition. Consider `CC1=NN(c2ccccc2)C(=O)C1C(=O)Nc1cccc(-c2ncc[nH]2)c1` (centres unmarked) [compound 107, N-(3-(1H-imidazol-2-yl)phenyl)-3-methyl-5-oxo-1-phenyl-4,5-dihydro-1H-pyrazole-4-carboxamide], for which the IC50 against ACSS2 [1] is ≥ 1000 nM and 100 to 1000 nM; at ACSS2 [2], 100 to 1000 nM; on ACSS2 [3], 0.5 to 50 nM; on ACSS2 [4], 6 to 100 nM.

For `CC1=NN(c2ccccc2)C(=O)C1C(=O)Nc1cccc(-c2ccco2)c1` (centres unmarked) [compound 108, N-(3-(furan-2-yl)phenyl)-3-methyl-5-oxo-1-phenyl-4,5-dihydro-1H-pyrazole-4-carboxamide], the IC50 is < 100 nM against ACSS2 [1], < 100 nM against ACSS2 [2], 0.5 to 50 nM at ACSS2 [3] and 0.01 to 6 nM at ACSS2 [4].

Turning to `CC1=NN(c2ccccc2)C(=O)C1C(=O)Nc1cccc(-c2cnccn2)c1` (centres unmarked) [compound 109, 3-methyl-5-oxo-1-phenyl-N-(3-(pyrazin-2-yl)phenyl)-4,5-dihydro-1H-pyrazole-4-carboxamide], the IC50 against ACSS2 [1] was 100 to 1000 nM; at ACSS2 [3], 50 to 100 nM; against ACSS2 [4] it was 0.01 to 6 nM.

In the case of `CCCC(=O)c1cccc(NC(=O)C2C(=O)N(c3ccccc3)N=C2C)c1` (centres unmarked) [compound 114, N-(3-butyrylphenyl)-3-methyl-5-oxo-1-phenyl-4,5-dihydro-1H-pyrazole-4-carboxamide], the IC50 against ACSS2 [1] is ≥ 1000 nM and 100 to 1000 nM; against ACSS2 [4] it was 6 to 100 nM.

With `CCC(=O)c1cccc(NC(=O)C2C(=O)N(c3ccccc3)N=C2C)c1` (centres unmarked) [compound 117, 3-methyl-5-oxo-1-phenyl-N-(3-propionylphenyl)-4,5-dihydro-1H-pyrazole-4-carboxamide], the IC50 was < 100 nM and 100 to 1000 nM on ACSS2 [1]; 0.5 to 50 nM against ACSS2 [3]; 0.01 to 6 nM against ACSS2 [4].

As to `CC1=NN(c2ccccc2)C(=O)C1C(=O)Nc1cccc(C2CC2)c1` (centres unmarked) [compound 119, N-(3-cyclopropylphenyl)-3-methyl-5-oxo-1-phenyl-4,5-dihydro-1H-pyrazole-4-carboxamide], the IC50 against ACSS2 [1] fell in the range of 100 to 1000 nM; against ACSS2 [3], 0.5 to 50 nM; against ACSS2 [4] it was 0.01 to 6 nM.

For the compound `CC1=NN(c2ccccc2)C(=O)C1C(=O)Nc1cccc(-c2ncco2)c1` (centres unmarked) [compound 124, 3-methyl-N-(3-(oxazol-2-yl)phenyl)-5-oxo-1-phenyl-4,5-dihydro-1H-pyrazole-4-carboxamide], the IC50 against ACSS2 [1] is 100 to 1000 nM; against ACSS2 [2] it was 100 to 1000 nM; at ACSS2 [3] it was > 100 nM; at ACSS2 [4] it was 6 to 100 nM.

Take `CCc1cccc(NC(=O)C2C(=O)N(c3ccc(OC)cc3)N=C2C)c1` (centres unmarked) [compound 138, N-(3-ethylphenyl)-1-(4-methoxyphenyl)-3-methyl-5-oxo-4,5-dihydro-1H-pyrazole-4-carboxamide]: the IC50 against ACSS2 [1] was in the range of 100 to 1000 nM; against ACSS2 [3], 0.5 to 50 nM; against ACSS2 [4] it was 6 to 100 nM.

Regarding `CC1=NN(c2ccccc2)C(=O)C1C(=O)Nc1cccc(C(C)(F)F)c1` (centres unmarked) [compound 141, N-(3-(1,1-difluoroethyl)phenyl)-3-methyl-5-oxo-1-phenyl-4,5-dihydro-1H-pyrazole-4-carboxamide], the IC50 against ACSS2 [1] was < 100 nM; against ACSS2 [2], < 100 nM; against ACSS2 [3] it was 0.5 to 50 nM; at ACSS2 [4], 0.01 to 6 nM.

Consider `CCc1cccc(NC(=O)C2C(=O)N(c3ccc(OC(C)C)cc3)N=C2C)c1` (centres unmarked) [compound 142, N-(3-ethylphenyl)-1-(4-isopropoxyphenyl)-3-methyl-5-oxo-4,5-dihydro-1H-pyrazole-4-carboxamide], for which the IC50 was 100 to 1000 nM against ACSS2 [1], 100 to 1000 nM against ACSS2 [2], > 100 nM against ACSS2 [3] and 6 to 100 nM at ACSS2 [4].

Consider `CC1=NN(c2cccc(C(=O)O)c2)C(=O)C1C(=O)Nc1cccc(-c2ccco2)c1` (centres unmarked) [compound 159, 3-(4-((3-(furan-2-yl)phenyl)carbamoyl)-3-methyl-5-oxo-4,5-dihydro-1H-pyrazol-1-yl)benzoic acid], for which the 50% inhibitory concentration (IC50) is ≥ 1000 nM at ACSS2 [2], > 100 nM against ACSS2 [3] and 6 to 100 nM against ACSS2 [4].

In the case of `CC1=NN(c2cccc(C(F)(F)F)c2)C(=O)C1C(=O)Nc1cccc(-c2ccco2)c1` (centres unmarked) [compound 165], the IC50 against ACSS2 [2] was < 100 nM; against ACSS2 [3] it was 0.5 to 50 nM; against ACSS2 [4], 0.01 to 6 nM.

On to `CC1=NN(c2cccc(C(F)(F)F)c2)C(=O)C1C(=O)Nc1cccc(-c2cnccn2)c1` (centres unmarked) [compound 166, 3-methyl-5-oxo-N-(3-(pyrazin-2-yl)phenyl)-1-(3-(trifuoromethyl)phenyl)-4,5-dihydro-1H-pyrazole-4-carboxamide], for which the IC50 against ACSS2 [2] is < 100 nM (2×) and 100 nM to 1 µM; against ACSS2 [3], > 100 nM; on ACSS2 [4], 0.01 to 6 nM.

Consider `CCc1cccc(NC(=O)C2C(=O)N(c3ccc4c(c3)OCO4)N=C2C)c1` (centres unmarked) [compound 168], for which the IC50 against ACSS2 [2] lay within 100 to 1000 nM; at ACSS2 [3], 0.5 to 50 nM; on ACSS2 [4], 6 to 100 nM.

In the case of `CC1=NN(c2cccc(C(=O)O)c2)C(=O)C1C(=O)Nc1cccc(-c2cnccn2)c1` (centres unmarked) [compound 169], the IC50 at ACSS2 [2] is ≥ 1000 nM; at ACSS2 [3], > 100 nM; on ACSS2 [4], 6 to 100 nM.

With `CC(=O)c1cccc(NC(=O)C2C(=O)N(c3ccccc3)N=C2C)c1` (centres unmarked) [compound 183, N-(3-acetylphenyl)-3-methyl-5-oxo-1-phenyl-4,5-dihydro-1H yrazole-4-carboxamide], the IC50 is ≥ 1000 nM at ACSS2 [1] and 6 to 100 nM at ACSS2 [4].

As to `CCc1cccc(NC(=O)C2C(=O)N(c3ccccc3)N=C2C)c1` (centres unmarked) [compound 184, N-(3-ethylphenyl)-3-methyl-5-oxo-1-phenyl-4,5-dihydro-1H-pyrazole-4-carboxamide], the IC50 was in the range of 100 to 1000 nM on ACSS2 [1] and 6 to 100 nM on ACSS2 [4].

`COC(=O)c1cccc(NC(=O)C2C(=O)N(c3ccccc3)N=C2C)c1` (centres unmarked) [compound 206, 3-(3-methyl-5-oxo-1-phenyl-4,5-dihydro-1H-pyrazole-4-carboxamido)benzoate]: the IC50 against ACSS2 [1] is 100 to 1000 nM; on ACSS2 [3], 50 to 100 nM; on ACSS2 [4], 0.01 to 6 nM.

For `CC1=NN(c2ccccc2)C(=O)C1C(=O)Nc1cccc(C(F)(F)F)c1` (centres unmarked) [compound 208, 3-methyl-5-oxo-1-phenyl-N-(3-(trifluoromethyl)phenyl)-4,5-dihydro-1H-pyrazole-4-carboxamide], the IC50 was ≥ 1000 nM and 100 to 1000 nM against ACSS2 [1]; > 100 nM on ACSS2 [3]; 6 to 100 nM against ACSS2 [4].

Take `CC1=NN(c2ccccc2)C(=O)C1C(=O)Nc1cccc(Br)c1` (centres unmarked) [compound 215, N-(3-bromophenyl)-3-methyl-5-oxo-1-phenyl-4,5-dihydro-1H-pyrazole-4-carboxamide]: the IC50 lay in the range of 100 to 1000 nM against ACSS2 [1] and 6 to 100 nM on ACSS2 [4].

`CC1=NN(c2ccccc2)C(=O)C1C(=O)Nc1cccc(C(=O)N(C)C)c1` (centres unmarked) [compound 220, N-(3-(dimethylcarbamoyl)phenyl)-3-methyl-5-oxo-1-phenyl-4,5-dihydro-1H-pyrazole-4-carboxamide]: the IC50 was 100 to 1000 nM against ACSS2 [1], < 100 nM against ACSS2 [2], > 100 nM against ACSS2 [3] and 0.01 to 6 nM on ACSS2 [4].
